Assay results: patent US20240383886A1, “Protein Tyrosine Phosphatase Degraders and Methods of Use Thereof” (CALICO LIFE SCIENCES LLC, priority 2019, published 2024)

Columns and labels:
PTPN2 [1] = target: T1, PTPN2 (Homo sapiens, UniProt P17706); assay: HiBiT-Degradation 293T.109 PTPN2 (Nano-Glo HiBiT Lytic Assay); format: cell-based; details: 293T.109 (HiBiT-PTPN2) cells, 24.0 hours
T1 construct: expressed in transfected cells; host or cells: 293T (293T.109 HiBiT-PTPN2 line; parental 293T WT from ATCC)
T1 sequence (P17706 1-415): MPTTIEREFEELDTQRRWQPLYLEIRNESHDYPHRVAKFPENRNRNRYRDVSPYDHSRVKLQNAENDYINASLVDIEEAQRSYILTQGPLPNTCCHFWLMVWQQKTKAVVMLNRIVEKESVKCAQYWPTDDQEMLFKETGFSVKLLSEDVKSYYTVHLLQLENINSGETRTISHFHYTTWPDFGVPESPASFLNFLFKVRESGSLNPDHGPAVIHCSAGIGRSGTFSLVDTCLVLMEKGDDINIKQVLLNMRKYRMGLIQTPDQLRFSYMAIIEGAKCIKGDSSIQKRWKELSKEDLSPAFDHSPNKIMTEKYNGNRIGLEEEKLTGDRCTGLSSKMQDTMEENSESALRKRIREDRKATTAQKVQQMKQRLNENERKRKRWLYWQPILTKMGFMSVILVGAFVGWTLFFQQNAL
Source text: Dulbecco's modified Eagle medium (DMEM) without phenol red and fetal bovine serum (FBS) were purchased from Gibco (Grand Island, NY, USA). Nano-Glo® HiBIT Lytic Assay System was purchased from Promega (Madison, WI, USA). 293T.109 (HiBiT-PTPN2) cell line was generated by ectopically expressing PTPN2 with N-terminal HiBiT fusion tag in 293T WT cell line purchased from ATCC (Manassas, VA, USA). Cell culture flasks and 384-well microplates were acquired from VWR (Radnor, PA, USA).
PTPN2 degradation was determined based on quantification of luminescent signal using Nano-Glo® HiBIT Lytic Assay kit. Test compounds were added to the 384-well plate from a top concentration of 10 μM with 11 points, half log titration in duplicates. 293T.109 cells were added into 384-well plates at a cell density of 5000 cells per well. The plates were kept at 37° C. with 5% CO2 for 24 hours. The cells treated in the absence of the test compound were the negative control and the cells without Nano-Glo® HiBiT Lytic reagent were the positive control. After 24-hour incubation, Nano-Glo® HiBIT Lytic Assay reagents were added to the cells. Luminescence was acquired on EnVision™ Multilabel Reader (PerkinElmer, Santa Clara, CA, USA).

PTPN2 [2] = assay: HiBiT-Degradation B16F10.4 PTPN2; format: cell-based; details: B16F10.4 cells, 24.0 hours

SMILES | DC50 (PTPN2 [1]) | DC50 (PTPN2 [2])
Cn1nc(C2CCC(=O)NC2=O)c2ccc(C3CCN(C4CC(C(=O)Nc5ccc6c(F)c(N7CC(=O)NS7(=O)=O)c(O)cc6c5)C4)CC3(F)F)cc21 (centres unmarked) [Example 117, N-(6-(1,1-dioxido-4-oxo-1,2,5-thiadiazolidin-2-yl)-5-fluoro-7-hydroxynaphthalen-2-yl)-3-(4-(3-(2,6-dioxopiperidin-3-yl)-1-methyl-1H-indazol-6-yl)-3,3-difluoropiperidin-1-yl)cyclobutanecarboxamide] | 10 to 50 nM | 50 to 200 nM
O=C1CCC(N2C(=O)c3cccc(NCc4cn(CCOCCOCCC(=O)Nc5ccc6c(F)c(N7CC(=O)NS7(=O)=O)c(O)cc6c5)nn4)c3C2=O)C(=O)N1 (centres unmarked) [Example 63] | 200 to 1000 nM | ≥ 1000 nM
Cn1c(=O)n(C2CCC(=O)NC2=O)c2ccc(C3CCN(CCCn4cc(-c5ccc6cc(O)c(N7CC(=O)NS7(=O)=O)c(F)c6c5)cn4)CC3)cc21 (centres unmarked) [Example 91, 3-[5-[1-[3-[4-[8-fluoro-6-hydroxy-7-(1,1,4-trioxo-1,2,5-thiadiazolidin-2-yl)-2-naphthyl]pyrazol-1-yl]propyl]-4-piperidyl]-3-methyl-2-oxo-benzimidazol-1-yl]piperidine-2,6-dione] | 10 to 50 nM | 50 to 200 nM
Cn1nc(C2CCC(=O)NC2=O)c2ccc(C3CCN(CCn4cc(-c5ccc6c(F)c(N7CC(=O)NS7(=O)=O)c(O)cc6c5)cn4)CC3)cc21 (centres unmarked) [Example 152, 3-[6-[1-[2-[4-[5-fluoro-7-hydroxy-6-(1,1,4-trioxo-1,2,5-thiadiazolidin-2-yl)-2-naphthyl]pyrazol-1-yl]ethyl]-4-piperidyl]-1-methyl-indazol-3-yl]piperidine-2,6-dione] | 10 to 50 nM | 200 to 1000 nM
Cn1c(=O)n(C2CCC(=O)NC2=O)c2ccc(-c3ccc(NCC(C)(C)CCOc4ccc5cc(O)c(N6CC(=O)NS6(=O)=O)c(F)c5c4)cc3)cc21 (centres unmarked) [Example 151, 3-[5-[4-[[4-[[8-fluoro-6-hydroxy-7-(1,1,4-trioxo-1,2,5-thiadiazolidin-2-yl)-2-naphthyl]oxy]-2,2-dimethyl-butyl]amino]phenyl]-3-methyl-2-oxo-benzimidazol-1-yl]piperidine-2,6-dione] | 50 to 200 nM | ≥ 1000 nM
Cn1c(=O)n(C2CCC(=O)NC2=O)c2ccc(C3CCN(CCNC(=O)c4ccc5c(F)c(N6CC(=O)NS6(=O)=O)c(O)cc5c4)CC3)cc21 (centres unmarked) [Example 29, N-[2-[4-[1-(2,6-dioxo-3-piperidyl)-3-methyl-2-oxo-benzimidazol-5-yl]-1-piperidyl]ethyl]-5-fluoro-7-hydroxy-6-(1,1,4-trioxo-1,2,5-thiadiazolidin-2-yl)naphthalene-2-carboxamide] | < 10 nM | 50 to 200 nM
Cn1c(=O)n(C2CCC(=O)NC2=O)c2ccc(C3CCN(CC(=O)N4CCC[C@H](COc5ccc6cc(O)c(N7CC(=O)NS7(=O)=O)c(F)c6c5)C4)CC3)cc21 (stereo partly drawn) [Example 134, 3-[5-[1-[2-[(3S)-3-[[8-fluoro-6-hydroxy-7-(1,1,4-trioxo-1,2,5-thiadiazolidin-2-yl)-2-naphthyl]oxymethyl]-1-piperidyl]-2-oxo-ethyl]-4-piperidyl]-3-methyl-2-oxo-benzimidazol-1-yl]piperidine-2,6-dione] | 50 to 200 nM | 200 to 1000 nM
O=C(CCOCCC(=O)N1CCN(c2ccc(NC3CCC(=O)NC3=O)cc2)CC1)NCCOc1ccc2cc(O)c(N3CC(=O)NS3(=O)=O)c(F)c2c1 (centres unmarked) [Example 43] | ≥ 1000 nM | ≥ 1000 nM
O=C1CCC(N2Cc3c(OCc4cn(CCC(=O)Nc5ccc6c(F)c(N7CC(=O)NS7(=O)=O)c(O)cc6c5)nn4)cccc3C2=O)C(=O)N1 (centres unmarked) [Example 19, N-(6-(1,1-dioxido-4-oxo-1,2,5-thiadiazolidin-2-yl)-5-fluoro-7-hydroxynaphthalen-2-yl)-3-(4-(((2-(2,6-dioxopiperidin-3-yl)-1-oxoisoindolin-4-yl)oxy)methyl)-1H-1,2,3-triazol-1-yl)propanamide] | 50 to 200 nM | 200 to 1000 nM
Cn1c(=O)n(C2CCC(=O)NC2=O)c2ccc(-c3ccc(CC(=O)Nc4ccc5c(F)c(N6CC(=O)NS6(=O)=O)c(O)cc5c4)cc3)cc21 (centres unmarked) [Example 77, 2-[4-[1-(2,6-dioxo-3-piperidyl)-3-methyl-2-oxo-benzimidazol-5-yl]phenyl]-N-[5-fluoro-7-hydroxy-6-(1,1,4-trioxo-1,2,5-thiadiazolidin-2-yl)-2-naphthyl]acetamide] | 10 to 50 nM | 10 to 50 nM
Cn1nc([C@H]2CCC(=O)NC2=O)c2ccc(N3CCC(CC(=O)Nc4ccc5c(F)c(N6CC(=O)NS6(=O)=O)c(O)cc5c4)CC3)cc21 [Example 164, 2-[1-[3-[(3R)-2,6-dioxo-3-piperidyl]-1-methyl-indazol-6-yl]-4-piperidyl]-N-[5-fluoro-7-hydroxy-6-(1,1,4-trioxo-1,2,5-thiadiazolidin-2-yl)-2-naphthyl]acetamide] | 10 to 50 nM | 50 to 200 nM
Cn1c(=O)n(C2CCC(=O)NC2=O)c2ccc(C3CCN(CCC(=O)N4CC[C@@H](c5ccc6cc(O)c(N7CC(=O)NS7(=O)=O)c(F)c6c5)C4)CC3)cc21 (some centres unmarked) [Example 145] | 10 to 50 nM | 50 to 200 nM
Cn1c(=O)n(C2CCC(=O)NC2=O)c2ccc(-c3cnn(CC(=O)Nc4ccc5c(F)c(N6CC(=O)NS6(=O)=O)c(O)cc5c4)c3)cc21 (centres unmarked) [Example 172, 2-[4-[1-(2,6-dioxo-3-piperidyl)-3-methyl-2-oxo-benzimidazol-5-yl]pyrazol-1-yl]-N-[5-fluoro-7-hydroxy-6-(1,1,4-trioxo-1,2,5-thiadiazolidin-2-yl)-2-naphthyl]acetamide] | 10 to 50 nM | 10 to 50 nM
Cn1c(=O)n(C2CCC(=O)NC2=O)c2ccc(C3CCN(CC(=O)N4CCN(c5ccc6cc(O)c(N7CC(=O)NS7(=O)=O)c(F)c6c5)CC4)CC3)cc21 (centres unmarked) [Example 156, 3-[5-[1-[2-[4-[8-fluoro-6-hydroxy-7-(1,1,4-trioxo-1,2,5-thiadiazolidin-2-yl)-2-naphthyl]piperazin-1-yl]-2-oxo-ethyl]-4-piperidyl]-3-methyl-2-oxo-benzimidazol-1-yl]piperidine-2,6-dione] | 10 to 50 nM | 200 to 1000 nM
Cn1c(=O)n([C@H]2CCC(=O)NC2=O)c2ccc(C3CCN(CC(=O)NCCOc4ccc5cc(O)c(N6CC(=O)NS6(=O)=O)c(F)c5c4)CC3)cc21 [Example 93, 2-[4-[1-[(3S)-2,6-dioxo-3-piperidyl]-3-methyl-2-oxo-benzimidazol-5-yl]-1-piperidyl]-N-[2-[[8-fluoro-6-hydroxy-7-(1,1,4-trioxo-1,2,5-thiadiazolidin-2-yl)-2-naphthyl]oxy]ethyl]acetamide] | 10 to 50 nM | 50 to 200 nM
Cn1c(=O)n(C2CCC(=O)NC2=O)c2ccc(C3CCN(CC4CC4C(=O)Nc4ccc5c(F)c(N6CC(=O)NS6(=O)=O)c(O)cc5c4)CC3)cc21 (centres unmarked) [Example 176, N-(6-(1,1-dioxido-4-oxo-1,2,5-thiadiazolidin-2-yl)-5-fluoro-7-hydroxynaphthalen-2-yl)-2-((4-(1-(2,6-dioxopiperidin-3-yl)-3-methyl-2-oxo-2,3-dihydro-1H-benzo[d]imidazol-5-yl)piperidin-1-yl)methyl)cyclopropane-1-carboxamide] | 10 to 50 nM | 50 to 200 nM
CN(c1ccc(C2CCN(CC(=O)Nc3ccc4c(F)c(N5CC(=O)NS5(=O)=O)c(O)cc4c3)CC2)cc1)C1CCC(=O)NC1=O (centres unmarked) [Example 108, 2-[4-[4-[(2,6-dioxo-3-piperidyl)-methyl-amino]phenyl]-1-piperidyl]-N-[5-fluoro-7-hydroxy-6-(1,1,4-trioxo-1,2,5-thiadiazolidin-2-yl)-2-naphthyl]acetamide] | 200 to 1000 nM | ≥ 1000 nM
Cn1c(=O)n(C2CCC(=O)NC2=O)c2ccc(N3CCC(O)(CC(=O)N4CC[C@@H](COc5ccc6cc(O)c(N7CC(=O)NS7(=O)=O)c(F)c6c5)C4)CC3)cc21 (stereo partly drawn) [Example 155, 3-[5-[4-[2-[(3R)-3-[[8-fluoro-6-hydroxy-7-(1,1,4-trioxo-1,2,5-thiadiazolidin-2-yl)-2-naphthyl]oxymethyl]pyrrolidin-1-yl]-2-oxo-ethyl]-4-hydroxy-1-piperidyl]-3-methyl-2-oxo-benzimidazol-1-yl]piperidine-2,6-dione] | 50 to 200 nM | 200 to 1000 nM
O=C1CCC(Nc2ccc(C3CCN(CC(=O)Nc4ccc5c(F)c(N6CC(=O)NS6(=O)=O)c(O)cc5c4)CC3)c(F)c2)C(=O)N1 (centres unmarked) [Example 55] | 200 to 1000 nM | ≥ 1000 nM
